Results published in paper PMC8037182, “Solvothermal Synthesis of Multiple Dihydropyrimidinones at a Time as Inhibitors of Eg5” (Molecules, 2021).

Target: T1, Eg5 motor protein (Homo sapiens, UniProt P52732)
T1 construct: Eg5 motor domain (amino acids 1-368) was cloned into pET22b; His-tag (C); made in house; host or cells: Escherichia coli BL21 (DE3)
T1 sequence (P52732 1-368): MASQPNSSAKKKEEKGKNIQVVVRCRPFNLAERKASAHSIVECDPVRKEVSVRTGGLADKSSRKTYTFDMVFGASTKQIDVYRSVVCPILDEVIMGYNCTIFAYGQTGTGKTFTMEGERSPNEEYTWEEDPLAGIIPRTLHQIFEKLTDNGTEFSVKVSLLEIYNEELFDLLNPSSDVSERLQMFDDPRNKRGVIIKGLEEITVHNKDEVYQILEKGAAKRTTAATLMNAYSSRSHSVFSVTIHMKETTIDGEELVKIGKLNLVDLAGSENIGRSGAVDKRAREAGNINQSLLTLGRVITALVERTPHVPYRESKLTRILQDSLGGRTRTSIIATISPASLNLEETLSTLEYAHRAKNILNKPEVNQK
Assay: Lineweaver–Burk plot analysis of Eg5 ATPase inhibition
Assay type: biochemical
Experimental: Assays followed methods similar to that described above for the primary Eg5 motor protein ATPase assay. For either study, compound C9 were tested at 60.50 μM, 30.25 μM, 15.13 μM, 0 μM. ATP concentration was varied from 52 μM to 417 μM. The enzyme concentration tested was 100 nM. All conditions were performed in three independent duplicate experiments. The data were analyzed with GraphPad Prism 6.02 software.
Figure 1 Steady-state inhibition of Eg5 by C9. […] Lines represent a curve fit of the global data set to a mixed-type inhibition model.

CCOc1ccccc1C1NC(=S)NC(C)=C1C(=O)Nc1ccc(Cl)cc1 (centres unmarked) [C9]
Slope of the Lineweaver-Burk plot, Mean (C9 15.13 uM): 0.649 | OD630 Value Mean (C9 15.13 uM, ATP 0.052 mM): 0.142 | OD630 Value Mean (C9 15.13 uM, ATP 0.104 mM): 0.177 | OD630 Value Mean (C9 15.13 uM, ATP 0.209 mM): 0.199 | OD630 Value Mean (C9 15.13 uM, ATP 0.313 mM): 0.226 | OD630 Value Mean (C9 15.13 uM, ATP 0.417 mM): 0.268 | Slope of the Lineweaver-Burk plot, Mean (C9 30.25 uM): 0.942 | OD630 Value Mean (C9 30.25 uM, ATP 0.052 mM): 0.126 | OD630 Value Mean (C9 30.25 uM, ATP 0.104 mM): 0.155 | OD630 Value Mean (C9 30.25 uM, ATP 0.209 mM): 0.174 | OD630 Value Mean (C9 30.25 uM, ATP 0.313 mM): 0.197 | OD630 Value Mean (C9 30.25 uM, ATP 0.417 mM): 0.231 | Slope of the Lineweaver-Burk plot, Mean (C9 60.50 uM): 1.374 | OD630 Value Mean (C9 60.5 uM, ATP 0.052 mM): 0.114 | OD630 Value Mean (C9 60.5 uM, ATP 0.104 mM): 0.138 | OD630 Value Mean (C9 60.5 uM, ATP 0.209 mM): 0.156 | OD630 Value Mean (C9 60.5 uM, ATP 0.313 mM): 0.171 | OD630 Value Mean (C9 60.5 uM, ATP 0.417 mM): 0.198 | type of Eg5 inhibition (Lineweaver–Burk plot, ATP varied 52–417 μM): mixed-type Eg5 inhibitor | Ki (secondary plot of Lineweaver–Burk plot, slope versus concentration): 15.7 µM
